Experiments:
pERK = test: Western blot of ERK phosphorylation in cortical neurons; type: cell-based, rat
Method: In a separate set of experiments to examine the effect of 5-HT2A activation, M100907 (100 nM) was administered as a 10 min pretreatment and remained in the medium for the rest of the experiment. Next, cells were lysed and centrifuged. […] The co-immunoprecipitation was carried out as previously described[11],[23],[24] with minor modifications. Briefly, Magnetic Dynabeads Protein G (Invitrogen, 10004D) were coated with anti-TrkB antibody (R&D Systems, AF1494) at 200 ng of antibody per 1 µl of beads in rotation (2 h, 4 °C). Finally, lysates were mixed with the coated beads (100 µg of total protein per 15 µl of beads) and incubated in rotation (overnight, 4 °C).
Proteins were separated according to their molecular weight by SDS–PAGE and transferred to a polyvinylidene fluoride membrane. Membranes were incubated with the following primary antibodies (all 1:1,000 in 3% BSA in TBS-T, overnight, 4 °C): anti-TrkB (R&D Systems, AF1494), anti-β-actin (Sigma-Aldrich, A1978), anti-phospho-mTOR (Cell Signaling Technology, 5536S), anti-phospho-p44/42 MAPK (Erk1/2) (Cell Signaling Technology, 9106S), anti-mTOR (Cell Signaling Technology, 2972S) and anti-p44/42 MAPK (Erk1/2) (Cell Signaling Technology, 9102S). […] Protein bands were visualized using enhanced chemiluminescent substrate (Thermo Scientific, 32132, ECL Plus) and imaged with a charge-coupled device camera (G:BOX, Syngene).

GFP-tagged TrkA.TM = test: Microscale thermophoresis (MST) in HEK293T lysates; type: binding
Method: (§1) MST experiments were performed using the Monolith NT.115 (Blue/Red) instrument (NanoTemper Technologies). Lysates of HEK293T cells expressing GFP-tagged TrkB (WT, Y433F, TrkA.TM) were lysed, vortexed, sonicated and centrifuged 24 h after transient transfection and used as a source of fluorescently labeled TrkB, similarly to previously described protocols[11],[45]–[47]. The advantage of this approach is the possibility of studying the proteins in close-to-native conditions. However, the presence of other proteins, lipids, nucleic acids and other components of crude cell lysates can alter the diffusion of biomolecules and therefore binding affinities. High viscosity and background signal typically results in the affinity values being orders of magnitude […] than those of more traditional binding assays. […] The measurements were performed in premium coated capillaries (NanoTemper Technologies, MO-K025) using a LED source with 470 nm and 50% infrared-laser power at 25 °C. Analysis was performed using MO Affinity Analysis 2.3. Results were fitted to specific binding with Hill slope equations from GraphPad Prism 9.2.

eGFP-tagged TrkB (WT) = target: T1, eGFP-tagged TrkB (WT) (Rattus norvegicus, UniProt Q63604); test: Microscale thermophoresis (MST) in HEK293T lysates; type: binding
T1 construct: expressed in transfected cells; host or cells: HEK293T
Method: as §1

GFP-tagged TrkB Y433F = target: T2, GFP-tagged TrkB Y433F (Rattus norvegicus, UniProt Q63604, Y433F); test: Microscale thermophoresis (MST) in HEK293T lysates; type: binding
T2 construct: expressed in transfected cells; host or cells: HEK293T
Method: as §1

mice [1] = test: Repeated forced swimming test (rFST); type: in vivo, mouse
Method: rFST was conducted in WT and Y433F^+/− mice as described in literature[33],[92] with minor modifications. Briefly, female and male adult mice were exposed to five consecutive pretest sessions (5 min of duration, 24 h apart). […] The animals were submitted to a 5 min test session 7 days after the drug administration. The apparatus consisted of 5 l glass beaker cylinders (19 cm diameter, 20 cm water column at 23 ± 2 °C). The water was changed between each trial, for each animal. After each session, the animals were dried and kept in a warmed cage before returning to their home cages. The pretest and test sessions were recorded and analyzed by a trained observer blind to treatment and genotype.

mice [2] = test: Head-twitch response; type: in vivo, mouse; design: key to Mean, figure 7c (head-twitch response) / Mean Diff., figure 7d, Vehicle:Saline vs. Vehicle:LSD / Mean Diff., figure 7d, Vehicle:Saline vs. M100907:Saline / Mean Diff., figure 7d, M100907:Saline vs. M100907:LSD / Mean, figure 7d (head-twitch response) / Mean Diff., figure 7c, WT:Saline vs. WT:LSD / Head-twitch response, Mean: head twitch counts (scored every 2 min over 30 min); conditions: for Mean, figure 7c (head-twitch response): LSD group
Method: Immediately after the last injection, the animals were placed inside a transparent chamber and their activity video-recorded for 30 min. Similarly to previous studies, head twitches were scored as counts every 2 min by observers blinded to treatments and genotypes.

[3] = 7 d, saline minus LSD, Bonferroni's multiple comparisons test

T1 sequence (Q63604 32-821): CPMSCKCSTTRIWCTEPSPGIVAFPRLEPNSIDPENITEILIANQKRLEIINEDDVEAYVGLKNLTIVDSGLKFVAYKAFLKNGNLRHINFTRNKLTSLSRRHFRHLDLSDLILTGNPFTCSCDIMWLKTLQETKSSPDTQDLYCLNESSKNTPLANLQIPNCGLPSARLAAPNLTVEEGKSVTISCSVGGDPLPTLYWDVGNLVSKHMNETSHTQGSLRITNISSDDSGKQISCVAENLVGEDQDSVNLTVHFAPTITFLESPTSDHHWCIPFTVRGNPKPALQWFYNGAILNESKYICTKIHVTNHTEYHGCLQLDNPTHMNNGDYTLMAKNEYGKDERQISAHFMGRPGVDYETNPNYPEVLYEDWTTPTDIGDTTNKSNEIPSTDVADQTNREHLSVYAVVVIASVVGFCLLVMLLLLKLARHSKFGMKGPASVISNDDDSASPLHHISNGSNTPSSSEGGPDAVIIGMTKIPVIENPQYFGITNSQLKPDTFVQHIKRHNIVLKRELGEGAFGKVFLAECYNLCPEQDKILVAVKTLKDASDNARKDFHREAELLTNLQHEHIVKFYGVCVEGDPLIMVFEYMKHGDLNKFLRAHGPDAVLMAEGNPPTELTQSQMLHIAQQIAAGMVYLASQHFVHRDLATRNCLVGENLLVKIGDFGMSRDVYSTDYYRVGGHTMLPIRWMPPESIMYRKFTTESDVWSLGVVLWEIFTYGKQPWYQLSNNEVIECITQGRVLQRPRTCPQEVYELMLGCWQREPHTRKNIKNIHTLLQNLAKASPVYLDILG
T2 sequence (Q63604 32-821 Y433F): as the sequence (Q63604 32-821) above, with Y402F counted along it

CCN(CC)C(=O)C1C=C2c3cccc4[nH]cc(c34)CC2N(C)C1 (stereo not drawn) [LSD, lysergic acid diethylamide]
phosphorylation of ERK (pERK) (pERK; LSD 100 nM): rapidly increases phosphorylation of ERK (pERK) | pERK, group mean (5d) (pERK; LSD 100 nM, 5 min, vehicle 100): 167.8 | pERK, group mean (5d) (pERK; LSD 100 nM, 1 h, vehicle 100): 200.7 | pERK, group mean (5d) (pERK; LSD 100 nM, 24 h, vehicle 100): 100.4 | pERK, group mean (5e) (pERK; M100907:LSD (LSD after M100907 pretreatment), vehicle 100): 313.5 | pERK, group mean (5e) (pERK; Vehicle:LSD, vehicle 100): 268.1 | pERK, column mean over timepoints (5d) (pERK; mean of 5 min, 1 h, 24 h, vehicle 100): 156.3 | pERK, column mean of LSD (5e) (pERK; over vehicle and M100907 pretreatment, mean of vehicle 104): 290.8 | Bmax (best-fit, 1c/1d) (GFP-tagged TrkA.TM): ~ 12873 | h (best-fit, 1c/1d) (GFP-tagged TrkA.TM): 1.641 | h (best-fit, 1c/1d) (eGFP-tagged TrkB (WT); MST WT): 0.8476 | Bmax (best-fit, 1c/1d) (eGFP-tagged TrkB (WT); MST WT, fit ambiguous): ~ 566372 | binding by MST (eGFP-tagged TrkB (WT); native (WT) TrkB): directly bind to native TrkB | Bmax (best-fit, 1c/1d) (GFP-tagged TrkB Y433F; MST Y433F): ~ 430.4 | h (best-fit, 1c/1d) (GFP-tagged TrkB Y433F; MST Y433F): 1.157 | binding by MST (GFP-tagged TrkB Y433F; Y433F): but not to Y433F | Mean, figure 7g (repeated forced swimming test) (mice [1]; 7 d, pretest = 100): 81.36 | Mean Diff., figure 7f, WT+SAL vs. WT+LSD (mice [1]; [3]): 34.99 | Mean Diff., figure 7f, Y433F+/-+SAL vs. Y433F+/-+LSD (mice [1]; [3]): 7.08 | Mean Diff. vs. Vehicle, figure 7g (mice [1]; 7 d, vehicle minus treated, Bonferroni's multiple comparisons test): 13.93 | antidepressant-like effect in rFST (mice [1]; WT mice, 7 days after single administration): sustained antidepressant-like effect | Mean, figure 7f (repeated forced swimming test) (mice [1]; WT+LSD, 7 d, pretest = 100): 60.98 | Mean, figure 7f (repeated forced swimming test) (mice [1]; Y433F+/-+LSD, 7 d, pretest = 100): 93.99 | antidepressant-like effect in rFST (mice [1]; Y433F^+/− mice): not Y433F^+/− mice | Mean, figure 7d (head-twitch response) (mice [2]; M100907:LSD group): 0.4 | Mean, figure 7d (head-twitch response) (mice [2]; Vehicle:LSD group): 33 | Mean, figure 7c (head-twitch response) (mice [2]; WT mice): 76.8 | Mean Diff., figure 7c, WT:Saline vs. WT:LSD (mice [2]; WT mice, saline minus LSD, Bonferroni's multiple comparisons test): -73.8 | Mean, figure 7c (head-twitch response) (mice [2]; Y433F+/- mice): 67.8 | Mean Diff., figure 7c, Y433F+/-:Saline vs. Y433F+/-:LSD (mice [2]; Y433F+/- mice, saline minus LSD, Bonferroni's multiple comparisons test): -63.2 | head-twitch response (mice [2]; Y433F^+/− mice treated with LSD 0.1 mg kg^−1): occurs normally | Head-twitch response, Mean (mice [2]; ext fig 7c, TrkB.WT mice, Time (min) 2): 2.6 | Head-twitch response, Mean (mice [2]; ext fig 7c, TrkB.WT mice, Time (min) 4): 6.4 | Head-twitch response, Mean (mice [2]; ext fig 7c, TrkB.WT mice, Time (min) 6): 10.6 | Head-twitch response, Mean (mice [2]; ext fig 7c, TrkB.WT mice, Time (min) 8): 7.8 | Head-twitch response, Mean (mice [2]; ext fig 7c, TrkB.WT mice, Time (min) 10): 6.6 | Head-twitch response, Mean (mice [2]; ext fig 7c, TrkB.WT mice, Time (min) 12): 7.6 | Head-twitch response, Mean (mice [2]; ext fig 7c, TrkB.WT mice, Time (min) 14): 5.4 | Head-twitch response, Mean (mice [2]; ext fig 7c, TrkB.WT mice, Time (min) 16): 4.8 | Head-twitch response, Mean (mice [2]; ext fig 7c, TrkB.WT mice, Time (min) 18): 3.6 | Head-twitch response, Mean (mice [2]; ext fig 7c, TrkB.WT mice, Time (min) 20): 4 | Head-twitch response, Mean (mice [2]; ext fig 7c, TrkB.WT mice, Time (min) 22): 4.6 | Head-twitch response, Mean (mice [2]; ext fig 7c, TrkB.WT mice, Time (min) 24): 4.8 | Head-twitch response, Mean (mice [2]; ext fig 7c, TrkB.WT mice, Time (min) 26): 2 | Head-twitch response, Mean (mice [2]; ext fig 7c, TrkB.WT mice, Time (min) 28): 3.2 | Head-twitch response, Mean (mice [2]; ext fig 7c, TrkB.WT mice, Time (min) 30): 2.6 | Head-twitch response, Mean (mice [2]; ext fig 7c, TrkB.Y433F mice, Time (min) 2): 3 | Head-twitch response, Mean (mice [2]; ext fig 7c, TrkB.Y433F mice, Time (min) 4): 6.2 | Head-twitch response, Mean (mice [2]; ext fig 7c, TrkB.Y433F mice, Time (min) 6): 9.4 | Head-twitch response, Mean (mice [2]; ext fig 7c, TrkB.Y433F mice, Time (min) 8): 8.8 | Head-twitch response, Mean (mice [2]; ext fig 7c, TrkB.Y433F mice, Time (min) 10): 6.8 | Head-twitch response, Mean (mice [2]; ext fig 7c, TrkB.Y433F mice, Time (min) 12): 6.2 | Head-twitch response, Mean (mice [2]; ext fig 7c, TrkB.Y433F mice, Time (min) 14): 4.2 | Head-twitch response, Mean (mice [2]; ext fig 7c, TrkB.Y433F mice, Time (min) 16): 5 | Head-twitch response, Mean (mice [2]; ext fig 7c, TrkB.Y433F mice, Time (min) 18): 3.2 | Head-twitch response, Mean (mice [2]; ext fig 7c, TrkB.Y433F mice, Time (min) 20): 2.6 | Head-twitch response, Mean (mice [2]; ext fig 7c, TrkB.Y433F mice, Time (min) 22): 3 | Head-twitch response, Mean (mice [2]; ext fig 7c, TrkB.Y433F mice, Time (min) 24): 3.2 | Head-twitch response, Mean (mice [2]; ext fig 7c, TrkB.Y433F mice, Time (min) 26): 2.2 | Head-twitch response, Mean (mice [2]; ext fig 7c, TrkB.Y433F mice, Time (min) 28): 1.8 | Head-twitch response, Mean (mice [2]; ext fig 7c, TrkB.Y433F mice, Time (min) 30): 2.4 | Head-twitch response, Mean (mice [2]; ext fig 7d, Time (min) 2): 0.2 | Head-twitch response, Mean (mice [2]; ext fig 7d, Time (min) 4): 2.2 | Head-twitch response, Mean (mice [2]; ext fig 7d, Time (min) 6): 2.6 | Head-twitch response, Mean (mice [2]; ext fig 7d, Time (min) 8): 4.2 | Head-twitch response, Mean (mice [2]; ext fig 7d, Time (min) 10): 3 | Head-twitch response, Mean (mice [2]; ext fig 7d, Time (min) 12): 3.8 | Head-twitch response, Mean (mice [2]; ext fig 7d, Time (min) 14): 3.2 | Head-twitch response, Mean (mice [2]; ext fig 7d, Time (min) 16): 2.2 | Head-twitch response, Mean (mice [2]; ext fig 7d, Time (min) 18): 2.4 | Head-twitch response, Mean (mice [2]; ext fig 7d, Time (min) 20): 1.8 | Head-twitch response, Mean (mice [2]; ext fig 7d, Time (min) 22): 1.2 | Head-twitch response, Mean (mice [2]; ext fig 7d, Time (min) 24): 2.2 | Head-twitch response, Mean (mice [2]; ext fig 7d, Time (min) 26): 1.4 | Head-twitch response, Mean (mice [2]; ext fig 7d, Time (min) 28): 1.8 | Head-twitch response, Mean (mice [2]; ext fig 7d, Time (min) 30): 0.8 | Mean Diff., figure 7d, Vehicle:Saline vs. Vehicle:LSD (mice [2]; saline minus LSD, Bonferroni's multiple comparisons test): -30.6 | Mean Diff., figure 7d, M100907:Saline vs. M100907:LSD (mice [2]; with M100907, saline minus LSD, Bonferroni's multiple comparisons test): -0.2
